Experiments:
C57BL76 mice = test: Morris water maze procedure, scopolamine-induced amnesia; type: in vivo
Description: Groups of 13 to 16 C57BL76 mice (35 gm) were tested in the Morris. water maze procedure by training the mice to locate the pedestal in less than 15 seconds in three consecutive trials. Immediately upon completion of training the mice in each of three groups were treated with scopolamine (1 mg/kg), scopolamine+DHEA, or scopolamine+Δ5-Androstene-3β-acetyl-7,17-dione.

Aged, two year old mice = test: Morris water maze procedure, aged mice; type: in vivo; conditions: two weeks after treatment, DHEA 20 mg/kg or equimolar amount, control 36 seconds
Description: Aged, two year old mice were tested in the Morris water maze procedure by training the mice to locate the pedestal in less than 15 seconds in three consecutive trials. Immediately upon completion of training one group of mice was treated with DHEA (20 mg/kg) and a second group treated with an eqimolar amount of Δ5-Androstene-3β-acetyl-7,17-dione. Two weeks after treatment the time to rescue was timed in the Morris water maze procedure at: Control 36 seconds, DHEA 27 seconds, and Δ5-Androstene-3β-acetyl-7,17-dione 13 seconds.

[1] = C57BL76 mice (35 gm), scopolamine 1 mg/kg alone or with the steroid, six days after treatment, control 12.2±1.8

Structure (SMILES) | average time to rescue in the Morris water maze procedure (C57BL76 mice; [1]) | time to rescue in the Morris water maze procedure (Aged, two year old mice) | average time to rescue in the Morris water maze procedure (C57BL76 mice; mouse, in vivo)
CN1[C@@H]2C[C@@H](OC(=O)[C@H](CO)c3ccccc3)C[C@H]1[C@@H]1O[C@@H]12 [scopolamine] | 20.0 ± 3.6 s | – | –
C[C@]12CC[C@H](O)CC1=CC[C@@H]1[C@@H]2CC[C@]2(C)C(=O)CC[C@@H]12 [DHEA, dehydroepiandrosterone] | – | 27 s | 9.7 ± 1.6 s
CC(=O)O[C@H]1CC[C@@]2(C)C(=CC(=O)[C@@H]3[C@@H]2CC[C@]2(C)C(=O)CC[C@@H]32)C1 [Δ5-Androstene-3β-acetyl-7,17-dione] | 8.3 ± 1.8 s | 13 s | –

Reference: patent US6489313B1, “Memory by the administration of Δ5-androstene-3β-ol-7,17-dione and 3β esters” (Humanetics Corporation, priority 1998, dated 2002)
